Experimental data as given in ChEMBL document CHEMBL3885881, “DrugMatrix”.

Organism: Rattus norvegicus
Experiment: DrugMatrix - Regimen: Daily Repeat
Format: toxicity, organism-based, Sprague-Dawley
Design: regimen Daily Repeat, gender Male, age 6-8 weeks
Settings: in vivo, iv, vehicle 100 % SALINE; for ABSOLUTE BASOPHIL / ABSOLUTE EOSINOPHIL / ABSOLUTE LYMPHOCYTE / ABSOLUTE MONOCYTE / ABSOLUTE SEGMENTED NEUTROPHIL / BASOPHIL / EOSINOPHIL / ERYTHROCYTE COUNT / HEMATOCRIT / HEMOGLOBIN / LEUKOCYTE COUNT / LYMPHOCYTE / MEAN CORPUSCULAR HEMOGLOBIN / MEAN CORPUSCULAR HEMOGLOBIN CONCENTRATION / MEAN CORPUSCULAR VOLUME / MONOCYTE / NEUTROPHIL / NUCLEATED RED BLOOD CELLS / PLATELET COUNT: tissue Blood; for ALANINE AMINOTRANSFERASE / ALBUMIN / ALKALINE PHOSPHATASE / ASPARTATE AMINOTRANSFERASE / BLOOD UREA NITROGEN / CARBON DIOXIDE / CHLORIDE / CHOLESTEROL / CREATINE PHOSPHOKINASE / CREATININE / GLUCOSE / LACTATE DEHYDROGENASE / LIPASE / PHOSPHORUS / POTASSIUM / SODIUM / TOTAL BILIRUBIN / TOTAL PROTEIN / URIC ACID: tissue Plasma
[1] = 0.5 mg/kg, 120 h, dose level Low, time 5 day
[2] = […], 72 h, dose 1.7 mg/Kg, dose level High, time 3 day
[3] = […], 120 h, dose 1.7 mg/Kg, dose level High, time 5 day

For `CO[C@@]12[C@H](COC(N)=O)C3=C(C(=O)C(C)=C(N)C3=O)N1C[C@@H]1N[C@@H]12` [MITOMYCIN], the “ABSOLUTE BASOPHIL” value [1] was 0 CELLS/uL, the “ABSOLUTE EOSINOPHIL” value [1] was 31 CELLS/uL and the “ABSOLUTE LYMPHOCYTE” value [1] was 7760.33 CELLS/uL. For the same compound, the “ABSOLUTE MONOCYTE” value [1] was 22.67 CELLS/uL, the “ABSOLUTE SEGMENTED NEUTROPHIL” value [1] was 286 CELLS/uL and the BASOPHIL [1] was 0%. The EOSINOPHIL [1] was 0.33%, the “ERYTHROCYTE COUNT” value [1] was 6.12 x10E6/uL and the HEMATOCRIT [1] was 36.83%. The HEMOGLOBIN [1] was 14.33 G/DL, the “LEUKOCYTE COUNT” value [1] was 8.1 x10E3/uL and the LYMPHOCYTE [1] was 96%. The “MEAN CORPUSCULAR HEMOGLOBIN” value [1] was 23.4 pg, the “MEAN CORPUSCULAR HEMOGLOBIN CONCENTRATION” value [1] was 38.9 G/DL and the “MEAN CORPUSCULAR VOLUME” value [1] was 60.2 fL. The MONOCYTE [1] was 0.33%, the NEUTROPHIL [1] was 3.33% and the “NUCLEATED RED BLOOD CELLS” value [1] was 0.67 /100WBC. The “PLATELET COUNT” value [1] was 1302.33 x10E3/uL, the “ALANINE AMINOTRANSFERASE” value [1] was 47.33 u/L and the ALBUMIN [1] was 4.03 G/DL. The “ALKALINE PHOSPHATASE” value [1] was 285.67 u/L, the “ASPARTATE AMINOTRANSFERASE” value [1] was 78 u/L and the “BLOOD UREA NITROGEN” value [1] was 16.33 mg/dL. For the same compound, the “CARBON DIOXIDE” value [1] was 29.33 mmol/L, the CHLORIDE [1] was 101.67 MEQ/L and the CHOLESTEROL [1] was 67.33 mg/dL. The “CREATINE PHOSPHOKINASE” value [1] was 203 u/L, the CREATININE [1] was 0.34 mg/dL and the GLUCOSE [1] was 154 mg/dL. For the same compound, the “LACTATE DEHYDROGENASE” value [1] was 120 u/L, the LIPASE [1] was 11 u/L and the PHOSPHORUS [1] was 10.5 mg/dL. The POTASSIUM [1] was 4.84 MEQ/L, the SODIUM [1] was 145.67 MEQ/L and the “TOTAL BILIRUBIN” value [1] was 0.13 mg/dL. The “TOTAL PROTEIN” value [1] was 5.83 G/DL, the “URIC ACID” value [1] was 0.57 mg/dL and the “ABSOLUTE BASOPHIL” value [2] was 0 CELLS/uL. For the same compound, the “ABSOLUTE EOSINOPHIL” value [2] was 31.67 CELLS/uL, the “ABSOLUTE LYMPHOCYTE” value [2] was 7497.33 CELLS/uL and the “ABSOLUTE MONOCYTE” value [2] was 0 CELLS/uL. For the same compound, the “ABSOLUTE SEGMENTED NEUTROPHIL” value [2] was 1104.33 CELLS/uL, the BASOPHIL [2] was 0% and the EOSINOPHIL [2] was 0.33%. The “ERYTHROCYTE COUNT” value [2] was 5.47 x10E6/uL, the HEMATOCRIT [2] was 33.9% and the HEMOGLOBIN [2] was 13.43 G/DL. For the same compound, the “LEUKOCYTE COUNT” value [2] was 8.63 x10E3/uL, the LYMPHOCYTE [2] was 86.67% and the “MEAN CORPUSCULAR HEMOGLOBIN” value [2] was 24.6 pg. For the same compound, the “MEAN CORPUSCULAR HEMOGLOBIN CONCENTRATION” value [2] was 39.63 G/DL, the “MEAN CORPUSCULAR VOLUME” value [2] was 62.07 fL and the MONOCYTE [2] was 0%. The NEUTROPHIL [2] was 13%, the “NUCLEATED RED BLOOD CELLS” value [2] was 0 /100WBC and the “PLATELET COUNT” value [2] was 1626.67 x10E3/uL. For the same compound, the “ALANINE AMINOTRANSFERASE” value [2] was 35.67 u/L, the ALBUMIN [2] was 4.03 G/DL and the “ALKALINE PHOSPHATASE” value [2] was 211 u/L. The “ASPARTATE AMINOTRANSFERASE” value [2] was 72.33 u/L, the “BLOOD UREA NITROGEN” value [2] was 13.33 mg/dL and the “CARBON DIOXIDE” value [2] was 29.33 mmol/L. For the same compound, the CHLORIDE [2] was 99.33 MEQ/L, the CHOLESTEROL [2] was 71.33 mg/dL and the “CREATINE PHOSPHOKINASE” value [2] was 245.67 u/L. For the same compound, the CREATININE [2] was 0.15 mg/dL, the GLUCOSE [2] was 145.33 mg/dL and the “LACTATE DEHYDROGENASE” value [2] was 173 u/L. For the same compound, the LIPASE [2] was 8 u/L, the PHOSPHORUS [2] was 11.53 mg/dL and the POTASSIUM [2] was 5.56 MEQ/L. The SODIUM [2] was 141.2 MEQ/L, the “TOTAL BILIRUBIN” value [2] was 0.1 mg/dL and the “TOTAL PROTEIN” value [2] was 5.6 G/DL. The “URIC ACID” value [2] was 1.6 mg/dL, the “ABSOLUTE BASOPHIL” value [3] was 0 CELLS/uL and the “ABSOLUTE EOSINOPHIL” value [3] was 0 CELLS/uL. For the same compound, the “ABSOLUTE LYMPHOCYTE” value [3] was 2370 CELLS/uL, the “ABSOLUTE MONOCYTE” value [3] was 67 CELLS/uL and the “ABSOLUTE SEGMENTED NEUTROPHIL” value [3] was 663 CELLS/uL. The BASOPHIL [3] was 0%, the EOSINOPHIL [3] was 0% and the “ERYTHROCYTE COUNT” value [3] was 6.15 x10E6/uL. For the same compound, the HEMATOCRIT [3] was 38.97%, the HEMOGLOBIN [3] was 14.9 G/DL and the “LEUKOCYTE COUNT” value [3] was 3.1 x10E3/uL. For the same compound, the LYMPHOCYTE [3] was 78.33%, the “MEAN CORPUSCULAR HEMOGLOBIN” value [3] was 24.23 pg and the “MEAN CORPUSCULAR HEMOGLOBIN CONCENTRATION” value [3] was 38.23 G/DL. The “MEAN CORPUSCULAR VOLUME” value [3] was 63.33 fL, the MONOCYTE [3] was 2% and the NEUTROPHIL [3] was 19.67%. The “NUCLEATED RED BLOOD CELLS” value [3] was 0 /100WBC, the “PLATELET COUNT” value [3] was 1554 x10E3/uL and the “ALANINE AMINOTRANSFERASE” value [3] was 21.33 u/L. For the same compound, the ALBUMIN [3] was 3.37 G/DL, the “ALKALINE PHOSPHATASE” value [3] was 94.67 u/L and the “ASPARTATE AMINOTRANSFERASE” value [3] was 57 u/L. The “BLOOD UREA NITROGEN” value [3] was 15 mg/dL, the “CARBON DIOXIDE” value [3] was 30.67 mmol/L and the CHLORIDE [3] was 100.33 MEQ/L. For the same compound, the CHOLESTEROL [3] was 84.67 mg/dL, the “CREATINE PHOSPHOKINASE” value [3] was 265.67 u/L and the CREATININE [3] was 0.26 mg/dL. The GLUCOSE [3] was 154 mg/dL, the “LACTATE DEHYDROGENASE” value [3] was 136.67 u/L and the LIPASE [3] was 10.67 u/L. The PHOSPHORUS [3] was 8.73 mg/dL, the POTASSIUM [3] was 4.86 MEQ/L and the SODIUM [3] was 144.3 MEQ/L. For the same compound, the “TOTAL BILIRUBIN” value [3] was 0.1 mg/dL, the “TOTAL PROTEIN” value [3] was 5.13 G/DL and the “URIC ACID” value [3] was 0.57 mg/dL.
